Data: US20240058422A1, “GLUCAGON-LIKE PEPTIDE-1 RECEPTOR ANTAGONISTS” (INDIANA UNIVERSITY RESEARCH AND TECHNOLOGY CORPORATION, priority 2022, published 2024)
Converted amounts (≈) assume the structure as drawn. Where two headings read alike, the source gives them in different places. Starred links: 1 amine or outer side, 2 acyl side, 3 side chain; linkers in the order of their positions; H or OH if unused. Non-standard residues stand in square brackets, D forms with d. Residues, ends and D or L forms follow the SMILES beside them. Groups on a side chain read outwards from the residue. *: point of attachment. C18 diacid = O=C(O)CCCCCCCCCCCCCCCCC(=O)*; γGlu = O=C(O)[C@H](CCC(=O)[*:2])N[*:1]; Palmitoyl = CCCCCCCCCCCCCCCC(=O)*; AEEA = NCCOCCOCC(=O)O; Aib = CC(C)(N)C(=O)O

Key:
[1] = Solubility in buffer
[2] = biological target: GLP-1R (Homo sapiens, UniProt P43220); assay: GLP-1 receptor-mediated cAMP induction, luciferase reporter gene antagonism assay; type: cell-based; parameters: host or cells: HEK 293; details: antagonism of 0.05 nM GLP-1, HEK 293 cells
Method in brief: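 HEK 293 cells cotransfected with human GLP-1 receptor and CRE-luciferase were serum-deprived 16 h, then given serial peptide dilutions followed by 0.05 nM GLP-1 and incubated 5 h at 37° C.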

[3] = 80 mM ammonium bicarbonate buffer, pH 7.7, Solubility [mg/mL] 80 mM AmBicarb pH7.7, Table 2, 80 mM AmBicarb pH7.7
[4] = Table 2, C16 linker variants of 9-40amide Jant4 K40[X], read-out: Biactivity IC50
[5] = 80 mM ammonium bicarbonate buffer, pH 7.7
[6] = Table 3, amino acid substitution variants of Jant4-K40, read-out: Bioactivity IC50

Chain of GLP-1R (P43220 24-463): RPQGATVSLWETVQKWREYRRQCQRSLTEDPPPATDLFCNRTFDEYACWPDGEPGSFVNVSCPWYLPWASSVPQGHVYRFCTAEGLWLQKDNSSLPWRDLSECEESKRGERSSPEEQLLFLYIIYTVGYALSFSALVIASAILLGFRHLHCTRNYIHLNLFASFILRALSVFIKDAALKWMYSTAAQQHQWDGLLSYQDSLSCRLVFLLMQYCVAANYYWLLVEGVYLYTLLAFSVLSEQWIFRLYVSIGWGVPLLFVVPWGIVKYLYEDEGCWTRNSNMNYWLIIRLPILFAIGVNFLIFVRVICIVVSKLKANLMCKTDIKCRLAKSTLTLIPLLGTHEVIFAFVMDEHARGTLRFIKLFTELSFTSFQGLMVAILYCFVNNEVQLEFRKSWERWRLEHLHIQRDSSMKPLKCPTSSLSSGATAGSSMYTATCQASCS

SMILES | solubility [1, 3] | IC50 [2, 4] | solubility [1, 5] | IC50 [2, 6] | other results
CC[C@H](C)[C@H](NC(=O)[C@H](Cc1ccccc1)NC(=O)[C@H](CCC(=O)O)NC(=O)[C@H](CCCNC(=N)N)NC(=O)[C@@H](NC(=O)[C@H](C)NC(=O)[C@H](CCC(N)=O)NC(=O)[C@H](CCC(=O)O)NC(=O)[C@H](CCC(=O)O)NC(=O)[C@H](CC(C)C)NC(=O)[C@H](Cc1ccc(O)cc1)NC(=O)[C@H](CO)NC(=O)[C@H](CO)NC(=O)[C@@H](NC(=O)[C@@H](N)CC(=O)O)C(C)C)C(C)C)C(=O)N[C@@H](C)C(=O)N[C@@H](Cc1c[nH]c2ccccc12)C(=O)N[C@@H](CC(C)C)C(=O)N[C@H](C(=O)N[C@@H](CCCCN)C(=O)NCC(=O)NCC(=O)N1CCC[C@H]1C(=O)N[C@@H](CO)C(=O)N[C@@H](CO)C(=O)NCC(=O)N[C@@H](C)C(=O)N1CCC[C@H]1C(=O)N1CCC[C@H]1C(=O)N1CCC[C@H]1C(=O)N[C@@H](CO)C(=O)N[C@@H](CCCCNC(=O)CC[C@H](NC(=O)CC[C@H](NC(=O)CC[C@H](NC(=O)CC[C@H](NC(=O)CC[C@H](NC(=O)CC[C@H](NC(=O)CCCCCCCCCCCCCCCCC(=O)O)C(=O)O)C(=O)O)C(=O)O)C(=O)O)C(=O)O)C(=O)O)C(N)=O)C(C)C [compound 66] (H-DVSSYLEEQAVREFIAWLVKGGPSSGAPPPSK([γGlu-γGlu-γGlu-γGlu-γGlu-γGlu-C18 diacid])-NH2; N-terminus assumed) | > 25 mg/mL | 1460 nM |  |  | 
CC[C@H](C)[C@H](NC(=O)[C@H](Cc1ccccc1)NC(=O)[C@H](CCC(=O)O)NC(=O)[C@H](CCCNC(=N)N)NC(=O)[C@@H](NC(=O)[C@H](C)NC(=O)[C@H](CCC(N)=O)NC(=O)[C@H](CCC(=O)O)NC(=O)[C@H](CCC(=O)O)NC(=O)[C@H](CC(C)C)NC(=O)[C@H](Cc1ccc(O)cc1)NC(=O)[C@H](CO)NC(=O)[C@H](CO)NC(=O)[C@@H](NC(=O)[C@@H](N)CC(=O)O)C(C)C)C(C)C)C(=O)N[C@@H](C)C(=O)N[C@@H](Cc1c[nH]c2ccccc12)C(=O)N[C@@H](CC(C)C)C(=O)N[C@H](C(=O)N[C@@H](CCCCN)C(=O)NCC(=O)NCC(=O)N1CCC[C@H]1C(=O)N[C@@H](CO)C(=O)N[C@@H](CO)C(=O)NCC(=O)N[C@@H](C)C(=O)N1CCC[C@H]1C(=O)N1CCC[C@H]1C(=O)N1CCC[C@H]1C(=O)N[C@@H](CO)C(=O)N[C@@H](CCCCNC(=O)COCCOCCNC(=O)COCCOCCNC(=O)CC[C@H](NC(=O)CCCCCCCCCCCCCCCCC(=O)O)C(=O)O)C(N)=O)C(C)C [compound 67] (H-DVSSYLEEQAVREFIAWLVKGGPSSGAPPPSK([AEEA-AEEA-γGlu-C18 diacid])-NH2) | > 25 mg/mL | 579 nM |  |  | 
CC[C@H](C)[C@H](NC(=O)[C@H](Cc1ccccc1)NC(=O)[C@H](CCC(=O)O)NC(=O)[C@H](CCCNC(=N)N)NC(=O)[C@@H](NC(=O)[C@H](C)NC(=O)[C@H](CCC(N)=O)NC(=O)[C@H](CCC(=O)O)NC(=O)[C@H](CCC(=O)O)NC(=O)[C@H](CC(C)C)NC(=O)[C@H](Cc1ccc(O)cc1)NC(=O)[C@H](CO)NC(=O)[C@H](CO)NC(=O)[C@@H](NC(=O)[C@@H](N)CC(=O)O)C(C)C)C(C)C)C(=O)N[C@@H](C)C(=O)N[C@@H](Cc1c[nH]c2ccccc12)C(=O)N[C@@H](CC(C)C)C(=O)N[C@H](C(=O)N[C@@H](CCCCN)C(=O)NCC(=O)NCC(=O)N1CCC[C@H]1C(=O)N[C@@H](CO)C(=O)N[C@@H](CO)C(=O)NCC(=O)N[C@@H](C)C(=O)N1CCC[C@H]1C(=O)N1CCC[C@H]1C(=O)N1CCC[C@H]1C(=O)N[C@@H](CO)C(=O)N[C@@H](CCCCNC(=O)COCCOCCNC(=O)CC[C@H](NC(=O)CCCCCCCCCCCCCCCCC(=O)O)C(=O)O)C(N)=O)C(C)C [compound 68] (H-DVSSYLEEQAVREFIAWLVKGGPSSGAPPPSK([AEEA-γGlu-C18 diacid])-NH2; N-terminus assumed) | > 25 mg/mL | 718 nM |  |  | 
CCCCCCCCCCCCCCCC(=O)NCCCC[C@H](NC(=O)[C@H](CO)NC(=O)[C@@H]1CCCN1C(=O)[C@@H]1CCCN1C(=O)[C@@H]1CCCN1C(=O)[C@H](C)NC(=O)CNC(=O)[C@H](CO)NC(=O)[C@H](CO)NC(=O)[C@@H]1CCCN1C(=O)CNC(=O)CNC(=O)[C@H](CCCNC(=N)N)NC(=O)[C@@H](NC(=O)[C@H](CC(C)C)NC(=O)[C@H](Cc1c[nH]c2ccccc12)NC(=O)[C@H](C)NC(=O)[C@@H](NC(=O)[C@H](Cc1ccccc1)NC(=O)[C@H](CCC(=O)O)NC(=O)[C@H](CCCNC(=N)N)NC(=O)[C@@H](NC(=O)[C@H](C)NC(=O)[C@H](CCC(=O)O)NC(=O)[C@H](CCC(=O)O)NC(=O)[C@H](CCC(=O)O)NC(=O)[C@H](CC(C)C)NC(=O)[C@H](Cc1ccc(O)cc1)NC(=O)[C@H](CO)NC(=O)[C@H](CO)NC(=O)[C@@H](NC(=O)[C@@H](N)CC(=O)O)C(C)C)C(C)C)[C@@H](C)CC)C(C)C)C(N)=O [compound 71] (H-DVSSYLEEEAVREFIAWLVRGGPSSGAPPPSK(Palmitoyl)-NH2; N-terminus assumed) |  |  | > 20 mg/mL | 18 nM | 
CCCCCCCCCCCCCCCC(=O)NCCCC[C@H](NC(=O)[C@H](CO)NC(=O)[C@@H]1CCCN1C(=O)[C@@H]1CCCN1C(=O)[C@@H]1CCCN1C(=O)[C@H](C)NC(=O)CNC(=O)[C@H](CO)NC(=O)[C@H](CO)NC(=O)[C@@H]1CCCN1C(=O)CNC(=O)CNC(=O)[C@H](CCCNC(=N)N)NC(=O)[C@@H](NC(=O)[C@H](CC(C)C)NC(=O)[C@H](Cc1c[nH]c2ccccc12)NC(=O)[C@H](CCC(=O)O)NC(=O)[C@@H](NC(=O)[C@H](Cc1ccccc1)NC(=O)[C@H](CCC(=O)O)NC(=O)[C@H](CCCNC(=N)N)NC(=O)[C@@H](NC(=O)[C@H](C)NC(=O)[C@H](CCC(=O)O)NC(=O)[C@H](CCC(=O)O)NC(=O)[C@H](CCC(=O)O)NC(=O)[C@H](CC(C)C)NC(=O)[C@H](Cc1ccc(O)cc1)NC(=O)[C@H](CO)NC(=O)[C@H](CO)NC(=O)[C@@H](NC(=O)[C@@H](N)CC(=O)O)C(C)C)C(C)C)[C@@H](C)CC)C(C)C)C(N)=O [compound 72] (H-DVSSYLEEEAVREFIEWLVRGGPSSGAPPPSK(Palmitoyl)-NH2; N-terminus assumed) |  |  | > 20 mg/mL | 19 nM | 
CCCCCCCCCCCCCCCC(=O)NCCCC[C@H](NC(=O)[C@H](CO)NC(=O)[C@@H]1CCCN1C(=O)[C@@H]1CCCN1C(=O)[C@@H]1CCCN1C(=O)[C@H](C)NC(=O)CNC(=O)[C@H](CO)NC(=O)[C@H](CO)NC(=O)[C@@H]1CCCN1C(=O)CNC(=O)CNC(=O)[C@H](CCCNC(=N)N)NC(=O)[C@@H](NC(=O)[C@H](CC(C)C)NC(=O)[C@H](Cc1c[nH]c2ccccc12)NC(=O)[C@H](CCC(=O)O)NC(=O)[C@@H](NC(=O)[C@H](Cc1ccccc1)NC(=O)[C@H](CCC(=O)O)NC(=O)[C@H](CCCNC(=N)N)NC(=O)[C@@H](NC(=O)[C@H](C)NC(=O)[C@H](CCC(=O)O)NC(=O)[C@H](CCC(=O)O)NC(=O)[C@H](CCC(=O)O)NC(=O)[C@H](CC(C)C)NC(=O)[C@H](Cc1ccc(O)cc1)NC(=O)[C@H](CCCNC(=N)N)NC(=O)[C@H](CO)NC(=O)[C@@H](NC(=O)[C@@H](N)CC(=O)O)C(C)C)C(C)C)[C@@H](C)CC)C(C)C)C(N)=O [compound 75] (H-DVSRYLEEEAVREFIEWLVRGGPSSGAPPPSK(Palmitoyl)-NH2; N-terminus assumed) |  |  | 18.6 mg/mL (≈ 4.9 mM) | 19 nM | 
CCCCCCCCCCCCCCCC(=O)NCCCC[C@H](NC(=O)[C@H](CO)NC(=O)[C@@H]1CCCN1C(=O)[C@@H]1CCCN1C(=O)[C@@H]1CCCN1C(=O)[C@H](C)NC(=O)CNC(=O)[C@H](CO)NC(=O)[C@H](CO)NC(=O)[C@@H]1CCCN1C(=O)CNC(=O)CNC(=O)[C@H](CCCCN)NC(=O)[C@@H](NC(=O)[C@H](CC(C)C)NC(=O)[C@H](Cc1c[nH]c2ccccc12)NC(=O)[C@H](C)NC(=O)[C@@H](NC(=O)[C@H](Cc1ccccc1)NC(=O)[C@H](CCC(=O)O)NC(=O)[C@H](CCCNC(=N)N)NC(=O)[C@@H](NC(=O)[C@H](C)NC(=O)[C@H](CCC(N)=O)NC(=O)C(C)(C)NC(=O)[C@H](CCC(=O)O)NC(=O)[C@H](CC(C)C)NC(=O)[C@H](Cc1ccc(O)cc1)NC(=O)[C@H](CO)NC(=O)[C@H](CO)NC(=O)[C@@H](NC(=O)[C@@H](N)CC(=O)O)C(C)C)C(C)C)[C@@H](C)CC)C(C)C)C(N)=O [compound 84] (H-DVSSYLE[Aib]QAVREFIAWLVKGGPSSGAPPPSK(Palmitoyl)-NH2) |  |  | 5.2 mg/mL (≈ 1.45 mM) |  | solubility ([1]; PBS, pH 7.7, Solubility [mg/mL] PBS pH7.7, Table 4, PBS pH7.7): 0.2 mg/mL (≈ 0.0556 mM); IC50 ([2]; Table 4, Aib variants of 9-40am Jant4 K40[C16], read-out: Bioactivity IC50): 30 nM
CCCCCCCCCCCCCCCC(=O)NCCCC[C@H](NC(=O)[C@H](CO)NC(=O)[C@@H]1CCCN1C(=O)[C@@H]1CCCN1C(=O)[C@@H]1CCCN1C(=O)[C@H](C)NC(=O)CNC(=O)[C@H](CO)NC(=O)[C@H](CO)NC(=O)[C@@H]1CCCN1C(=O)CNC(=O)CNC(=O)[C@H](CCCCN)NC(=O)[C@@H](NC(=O)[C@H](CC(C)C)NC(=O)[C@H](Cc1c[nH]c2ccccc12)NC(=O)[C@H](C)NC(=O)[C@@H](NC(=O)[C@H](Cc1ccccc1)NC(=O)[C@H](CCC(=O)O)NC(=O)[C@H](CCCNC(=N)N)NC(=O)[C@@H](NC(=O)[C@H](C)NC(=O)[C@H](CCC(N)=O)NC(=O)[C@@H](CCC(=O)O)NC(=O)[C@H](CCC(=O)O)NC(=O)[C@H](CC(C)C)NC(=O)[C@H](Cc1ccc(O)cc1)NC(=O)[C@H](CO)NC(=O)[C@H](CO)NC(=O)[C@@H](NC(=O)[C@@H](N)CC(=O)O)C(C)C)C(C)C)[C@@H](C)CC)C(C)C)C(N)=O [compound 85] (H-DVSSYLE[dE]QAVREFIAWLVKGGPSSGAPPPSK(Palmitoyl)-NH2; N-terminus assumed) |  |  | 10.7 mg/mL (≈ 2.94 mM) |  | IC50 ([2]; Table 5, d-AA variants of 9-40am Jant4 K40[C16], read-out: Bioactivity KC50): 41 nM
